# Laboratory results taken from paper PMC5923142, “Selection and Characterization of Rupintrivir-Resistant Norwalk Virus Replicon Cells In Vitro” (Antimicrobial Agents and Chemotherapy, 2018).
# Columns and labels:
# Norwalk virus replicon = experiment: Replicon clearance from HGT-NV cells over 12 days without G418 (qRT-PCR); format: cell-based, Human norovirus (HuNoV) GI; settings: 12 days posttreatment, no G418
# Description: To confirm the previously reported inhibitory effects of rupintrivir on human norovirus replication ([10]), we generated a human gastric adenocarcinoma cell line, HGT-NV, which stably maintained a Norwalk virus replicon encoding the neomycin resistance gene in place of the major capsid protein. The effects of rupintrivir on norovirus RNA replication in the replicon cells were evaluated by quantitative reverse transcription-PCR (qRT-PCR). […] To determine the concentration of rupintrivir sufficient to completely eliminate the norovirus replicon from HGT-NV cells, we treated the replicon cells with 2.5, 5, and 10 μM rupintrivir in the absence of G418 for up to 12 days. The replicon cells were passaged on days 3, 8, and 12, and the levels of replicon RNA were quantified by qRT-PCR. […] To further characterize the inhibitory effects of rupintrivir, we performed a colony formation assay with replicon cells treated with rupintrivir for 12 days. […]
# The inhibitory effect of rupintrivir on HuNoV replication was assessed by quantification of the levels of GI NuNoV RNA and β-actin RNA as the reference gene. […] The real-time quantitative reverse transcription-PCR (qRT-PCR) assay was performed by using a One-Step Plus qRT-PCR kit according to the protocol of the manufacturer (Primer Design). […] Relative quantification was performed using the 2^−ΔΔCT threshold cycle (CT) method ([38]). […]
# GI I109V mutant protease = target: T1, GI I109V mutant protease (Norovirus, UniProt Q83883, I1209V); experiment: Cell-based FRET assay, GI I109V protease; set-up: species or system norovirus GI.1 (M87661)
# T1 construct: plasmids expressing norovirus protease from GI.1 (M87661); expressed in transfected cells; host or cells: HEK293T
# T1 sequence (Q83883 1101-1281 I1209V): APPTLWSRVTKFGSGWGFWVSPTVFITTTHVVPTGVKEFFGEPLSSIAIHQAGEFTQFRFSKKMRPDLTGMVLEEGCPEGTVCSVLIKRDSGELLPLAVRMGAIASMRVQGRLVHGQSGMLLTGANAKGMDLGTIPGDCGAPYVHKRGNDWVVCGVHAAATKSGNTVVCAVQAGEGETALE
# Description: The generation of plasmids expressing norovirus protease from GI.1 (M87661), GII.4 (DQ658413), or GV (DQ285629) norovirus and FRET assay constructs has been described previously ([18]). The plasmids carrying GI, GII, and GV proteases with the A105V, I109V, or A105V/I109V mutation were generated from the wild-type (WT) protease constructs described above by the QuikChange site-directed mutagenesis method. Mutant MNV genomes for reverse genetics were generated by two-step PCR mutagenesis of the WT MNV genome (pT7 MNV 3RZ) construct as described previously ([27]). The primers used for generation of the plasmids are listed in Tables S1 and S2 in the supplemental material.
# The YFP/CFP ratio was used to determine FRET efficiency, as described previously ([18], [40]). Briefly, HEK293T cells were plated into black 96-well cell culture microplates (Greiner Bio-One) at a density of 5 × 10^4 cells/well in 100 μl of DMEM containing 10% fetal bovine serum with or without various concentrations of rupintrivir and then incubated for 4 h in a CO2 incubator at 37°C. […] The plates were then analyzed on a SpectraMax i3 instrument in fluorescence mode, with excitation set at 434 nm and the reading emissions set at 477 nm (CFP) and 527 nm (YFP). The background fluorescence from wells transfected with pcDNA3.1 was determined and subtracted. […]
# [1] = target: T2, MNV WT protease (polyprotein) (Norovirus, UniProt Q80J95); experiment: In vitro translation, MNV polyprotein processing, WT protease; format: biochemical, murine norovirus; settings: 80 μM, rabbit reticulocyte lysate
# T2 construct: in vitro-transcribed MNV full-length capped RNA containing either the WT or mutant proteases; made in house; host or cells: rabbit reticulocyte lysate (Flexi system, Promega), in vitro translation
# Description: (§1) FIG 4 Impact of rupintrivir resistance-conferring mutations on MNV polyprotein processing in vitro. In vitro translation reactions were programmed with equal quantities of in vitro-transcribed MNV full-length capped RNA containing either the WT or mutant proteases in the presence and absence of 80 μM rupintrivir. The [^35S]methionine-labeled products were subsequently analyzed by SDS-PAGE and phosphorimaging analysis. The percentage of fully processed NS3, determined on the basis of the expected molecular mass of the proteins, was calculated and expressed relative to the total amount of viral protein produced.
# (§2) In vitro translation reactions were performed using a Flexi rabbit reticulocyte lysate system (Promega). The reaction mixtures were prepared according to the manufacturer's instructions as described for capped mRNAs and programmed with 1 μg of RNA per 25-μl reaction mixture. The reaction mixtures were incubated at 30°C for 90 min prior to the addition of an equal volume of SDS-PAGE sample buffer. Samples were subsequently resolved on a 12.5% SDS-polyacrylamide gel before exposure to a phosphorimager screen.
# [2] = target: T3, MNV I109V protease (polyprotein) (Norovirus, UniProt Q80J95, I1103V); experiment: In vitro translation, MNV polyprotein processing, I109V protease; format: biochemical, murine norovirus; settings: 80 μM, rabbit reticulocyte lysate
# T3 construct: in vitro-transcribed MNV full-length capped RNA containing either the WT or mutant proteases; made in house; host or cells: rabbit reticulocyte lysate (Flexi system, Promega), in vitro translation
# Description: as §1, §2
structure (smiles),measurement,setting,value
"CCOC(=O)/C=C/[C@H](C[C@@H]1CCNC1=O)NC(=O)[C@@H](CC(=O)[C@@H](NC(=O)c1cc(C)on1)C(C)C)Cc1ccc(F)cc1 [rupintrivir, Rupintrivir]",level of replicon RNA,Norwalk virus replicon; 5 μM,below the limit of quantification
same,level of replicon RNA,Norwalk virus replicon; 10 μM,below the limit of quantification
same,IC50,"GI I109V mutant protease; HEK293T cells, GI NS1/2-NS3 FRET substrate",4 ± 0.4 µM
same,fold increase in IC50,GI I109V mutant protease; vs GI WT protease,3.1 fold
same,polyprotein processing (mature NS3),[1],prevented the cleavage of the polyprotein
same,polyprotein processing (mature NS3),[2],still able to produce mature NS3
